Reference: patent US20170183318A1, “AMIDE COMPOUNDS, METHODS FOR PREPARATION, AND USE THEREOF AS AGENTS FOR THE TREATMENT AND PREVENTION OF DISEASES CAUSED BY RNA- AND/OR DNA-CONTAINING VIRUSES, AND CONCOMITANT DISEASES” (OBSCHESTVO S OGRANICHENNOI OTVETSTVENNOSTIYU …, priority 2014, published 2017)

tested on: Staphylococcus aureus; experiment: Murine model of staphylococcal pneumonia (bacterial growth from lung imprints); type: in vivo, outbred mice; conditions: 15 mg/kg orally, 5 days before and 2 days after S. aureus infection; lung imprints on Columbia agar; control 82.5
Experimental: The efficiency of the compounds was evaluated in outbred mice (females) infected with Staphylococcus aureus (mouse-adapted strain). The administration of the compounds was started 5 days before infection, orally at doses of 15 and 30 mg/kg in a volume of 0.2 mL. On day 5, the mice were infected intranasally under brief ether anesthesia by administration of Staphylococcus aureus at a dose of 10^9 CFU in a volume of 0.05 mL. One hour after infection, the administration of the compounds to the mice was continued at the above-indicated doses for additional 2 days. The reference drug was ampicillin administered intravenously at a single dose of 20 mg/kg. The control was mice infected with Staphylococcus aureus intranasally and treated with PBS. The mice were sacrificed two days after, the breast was dissected, and lung imprints were made in Petri dishes with Columbia agar. After incubation for 24 hours at 30° C., the presence (or absence) of Staphylococcus aureus bacterial growth was fixed in comparison with the control. The intensity of bacterial growth was evaluated in scores and expressed in %.

Compound	Bacterial growth, in %
O=C(O)CCCC(=O)NCCC1CCCN1 (stereo not drawn) [Compound 2]	50 (sporadic colonies (up to 100))
O=C(O)CCCC(=O)NCCC1CCCCN1 (stereo not drawn) [Compound 6]	45%
O=C(O)CCCC(=O)NCCCc1cccs1 [Compound 34]	25 (sporadic colonies (up to 10))
CC(Cc1cnc[nH]1)NC(=O)CCCC(=O)O (stereo not drawn) [Compound 115]	55%
O=C(O)CCCC(=O)NCCCc1c[nH]cn1 [Compound 118]	55%
CC(C)N(CCc1cnc[nH]1)C(=O)CCCC(=O)O [Compound 141]	55%
Cc1csc(CCNC(=O)CCCC(=O)O)n1 [Compound 197]	45%
O=C(O)CCCC(=O)NC(Cc1c[nH]cn1)C(=O)O (stereo not drawn) [Compound 251]	55%
O=C(O)CCCC(=O)NCCc1nc2ccccc2s1 [Compound 275]	35%

same assay, conditions: 30 mg/kg orally, 5 days before and 2 days after S. aureus infection; lung imprints on Columbia agar; control 82.5

Compound	Bacterial growth, in %
O=C(O)CCCC(=O)NCCC1CCCN1 (stereo not drawn) [Compound 2]	55%
O=C(O)CCCC(=O)NCCC1CCCCN1 (stereo not drawn) [Compound 6]	55%
O=C(O)CCCC(=O)NCCCc1cccs1 [Compound 34]	50 (sporadic colonies (up to 100))
CC(Cc1cnc[nH]1)NC(=O)CCCC(=O)O (stereo not drawn) [Compound 115]	25 (sporadic colonies (up to 10))
O=C(O)CCCC(=O)NCCCc1c[nH]cn1 [Compound 118]	50 (sporadic colonies (up to 100))
CC(C)N(CCc1cnc[nH]1)C(=O)CCCC(=O)O [Compound 141]	40%
Cc1csc(CCNC(=O)CCCC(=O)O)n1 [Compound 197]	60%
O=C(O)CCCC(=O)NC(Cc1c[nH]cn1)C(=O)O (stereo not drawn) [Compound 251]	20%
O=C(O)CCCC(=O)NCCc1nc2ccccc2s1 [Compound 275]	40%

tested on: human respiratory syncytial virus (strain A2); experiment: Antiviral activity against RS virus in a murine model of suppressed immune system (lung edema); type: in vivo; conditions: Balb/c mice, cyclophosphan-suppressed, RS-virus pneumonia; 30 mg/kg once daily for 5 days; M ± SD, n = 5; scores from possible 4
Experimental: Antiviral activity of the chemical compounds against human respiratory syncytial virus (strain A2, an infectious titer of 5×10^6 TCID50/mL) was assessed in a Balb/c murine model of viral pneumonia. The virus was inoculated to animals intranasally in a volume of 50 μL under brief ether anesthesia. The immune response in animals to RS virus was suppressed by intraperitoneal administration of cyclophosphan at a dose of 100 mg/kg 5 days before infection. The studied compounds were administered according to the treatment regimen once daily at a dose of 30 mg/kg for 5 days, starting 24 hours after infection. The activity of the compounds was determined by a reduction in edema of the lung infected with respiratory syncytial virus, compared to the control, on day 5 after infection.

Compound	Degree of lung edema on day 5 after infection, score
O=C(O)CCCC(=O)NCCC1CCCN1 (stereo not drawn) [Compound 2]	1.95 ± 0.32 score
O=C(O)CCCC(=O)NCCC1CCCCN1 (stereo not drawn) [Compound 6]	0.90 ± 0.22 score
O=C(O)CCCC(=O)NCCCc1cccs1 [Compound 34]	1.75 ± 0.4 score
CC(Cc1cnc[nH]1)NC(=O)CCCC(=O)O (stereo not drawn) [Compound 115]	1.60 ± 0.5 score
O=C(O)CCCC(=O)NCCCc1c[nH]cn1 [Compound 118]	1.85 ± 0.45 score
CC(C)N(CCc1cnc[nH]1)C(=O)CCCC(=O)O [Compound 141]	0.55 ± 0.21 score
Cc1csc(CCNC(=O)CCCC(=O)O)n1 [Compound 197]	1.15 ± 0.23 score
O=C(O)CCCC(=O)NC(Cc1c[nH]cn1)C(=O)O (stereo not drawn) [Compound 251]	0.90 ± 0.21 score
O=C(O)CCCC(=O)NCCc1nc2ccccc2s1 [Compound 275]	1.80 ± 0.20 score

tested on: HCoV (antigenically similar to prototype strain OC-43); experiment: Murine model of coronavirus infection (mortality); type: in vivo; conditions: Mus musculus, po, 336 h; HCoV intranasally, C57BL/6 mice; 30 mg/kg orally once daily for 5 days from 24 h after infection; 14 days; 20 mice per group; virus control 60.0
Experimental: In the study, author's strain HCoV was used, identified as group 2 virus antigenically similar to prototype strain OC-43. The efficiency of the compounds was studied in C57BL/6 mice by comparing mortality rates in the treated and control mice for 14 days after infection. Each experimental group comprised 20 mice. The animals were infected intranasally in a volume of 0.03 ml/mouse under brief ether anesthesia.
The studied compounds were administered to the animals orally at a dose of 30 mg/kg of body weight. The animals of the control group were administered physiological solution. Preparations were administered once daily for 5 days. The treatment of animals was started 24 hours after infection.

Compound	mortality at 30 mg/kg
O=C(O)CCCC(=O)NCCC1CCCN1 (stereo not drawn) [Compound 2]	30%
O=C(O)CCCC(=O)NCCC1CCCCN1 (stereo not drawn) [Compound 6]	35%
O=C(O)CCCC(=O)NCCCc1cccs1 [Compound 34]	45%
CC(Cc1cnc[nH]1)NC(=O)CCCC(=O)O (stereo not drawn) [Compound 115]	30%
O=C(O)CCCC(=O)NCCCc1c[nH]cn1 [Compound 118]	40%
CC(C)N(CCc1cnc[nH]1)C(=O)CCCC(=O)O [Compound 141]	35%
Cc1csc(CCNC(=O)CCCC(=O)O)n1 [Compound 197]	45%
O=C(O)CCCC(=O)NC(Cc1c[nH]cn1)C(=O)O (stereo not drawn) [Compound 251]	30%
O=C(O)CCCC(=O)NCCc1nc2ccccc2s1 [Compound 275]	40%

tested on: human adenovirus type 5; experiment: Model of experimental adenovirus infection (destructive processes in the liver, electron microscopy); type: in vivo; conditions: newborn Syrian hamsters, 30 mg/kg orally 12, 36, 60 h after infection, liver 72 h after infection, virus control Intensive damages
Experimental: In the study, human adenovirus type 5 was used. In order to play adenovirus infection were used Newborn Syrian hamsters, in which the virus caused disseminated viral infection with damage to liver, lung and heart, were used to reproduce the viral infection. The animals were studied 48 hours after birth. Each group comprised 5 hamsters. The virus was inoculated subcutaneously in a volume of 0.1 mL, at a dose of 10^5 TCID50. The treatment was carried out orally with the compounds of general formula I at a dose of 30 mg/kg of body weight 12, 36, and 60 hours after infection. The animals of the placebo group were administered phosphate buffered saline. Intact animals served as control and were hold in a separate room under the same conditions as the experimental animals. 72 hours after infection, the animals of each group were euthanized, dissected, and the liver was isolated. The therapeutic effect was evaluated by the action on ultrastructural features of the morphogenesis of adenovirus infection in the liver by electron microscopy.

Compound	Evaluation of damage (intensity of destructive processes in the liver)
O=C(O)CCCC(=O)NCCC1CCCN1 (stereo not drawn) [Compound 2]	Mild damage
O=C(O)CCCC(=O)NCCC1CCCCN1 (stereo not drawn) [Compound 6]	Mild damage
O=C(O)CCCC(=O)NCCCc1cccs1 [Compound 34]	Mild damage
CC(Cc1cnc[nH]1)NC(=O)CCCC(=O)O (stereo not drawn) [Compound 115]	Mild damage
O=C(O)CCCC(=O)NCCCc1c[nH]cn1 [Compound 118]	Mild damage
CC(C)N(CCc1cnc[nH]1)C(=O)CCCC(=O)O [Compound 141]	Mild damage
Cc1csc(CCNC(=O)CCCC(=O)O)n1 [Compound 197]	Mild damage
O=C(O)CCCC(=O)NC(Cc1c[nH]cn1)C(=O)O (stereo not drawn) [Compound 251]	Mild damage
O=C(O)CCCC(=O)NCCc1nc2ccccc2s1 [Compound 275]	Mild damage

tested on: hRV; experiment: Antiviral activity against rhinovirus in mice (infectious titer in lungs titrated in Hela cells; body and lung weight); type: in vivo; conditions: 30 mg/kg orally once daily for 4 days from 12 h after infection; lung suspension titrated in Hela cells
Experimental: In this study, author's strain of hRV was used. The animals were infected with the virus intranasally under brief ether anesthesia in a volume of 0.05 ml/mouse.
To determine the efficiency of the compounds against hRV in the experimental model in vivo, the virus was previously titrated in mice, then the mice were infected, and the studied compounds were administered orally. The infectious titer was assessed on day 4 after infection by titration of a lung suspension in Hela cell culture. The infectious titer of the hRV virus in the lugs of the experimental group was determined in comparison with that in the control group by TCID.
The studied compounds and placebo (physiological solution) were orally administered to the mice once daily for 4 days, starting 12 hours after infection. The compounds were administered at a dose of 30 mg/kg of animal body weight. Intact animals served as a negative control and were kept under the same conditions as the experimental animals in a separate room.
The antiviral activity of the studied compounds was determined on day 4 after infection by a reduction of the virus infectious activity determined in Hela cell culture.

Compound	Infectious titer of the virus in lungs lg TCID50 (4 days after infection)
O=C(O)CCCC(=O)NCCC1CCCN1 (stereo not drawn) [Compound 2]	0.1 ± 0.05 lg TCID50
O=C(O)CCCC(=O)NCCC1CCCCN1 (stereo not drawn) [Compound 6]	0.4 ± 0.15 lg TCID50
O=C(O)CCCC(=O)NCCCc1cccs1 [Compound 34]	0.5 ± 0.20 lg TCID50
CC(Cc1cnc[nH]1)NC(=O)CCCC(=O)O (stereo not drawn) [Compound 115]	0.05 ± 0.05 lg TCID50
O=C(O)CCCC(=O)NCCCc1c[nH]cn1 [Compound 118]	0 ± 0 lg TCID50
CC(C)N(CCc1cnc[nH]1)C(=O)CCCC(=O)O [Compound 141]	0 ± 0 lg TCID50
Cc1csc(CCNC(=O)CCCC(=O)O)n1 [Compound 197]	0.37 ± 0.06 lg TCID50
O=C(O)CCCC(=O)NC(Cc1c[nH]cn1)C(=O)O (stereo not drawn) [Compound 251]	0 ± 0 lg TCID50
O=C(O)CCCC(=O)NCCc1nc2ccccc2s1 [Compound 275]	0.45 ± 0.1 lg TCID50

tested on: herpes simplex virus belonging to antigenic type 2; experiment: Murine model of experimental herpetic meningoencephalitis (mortality); type: in vivo, white outbred mice; conditions: Mus musculus, po, 336 h
Experimental: In the study, herpes simplex virus belonging to antigenic type 2 was used. White outbred mice weighing 7-8 g were infected i/c (intracerebrally) in a volume of 0.05 ml/mouse comprising a dose of 10LD50. The infectious dose of the virus that caused 100% mortality in mice was 10LD50. Each experimental group comprised 20 mice. Intact animals served as control and were hold in a separate room under the same conditions as the experimental animals. The antiviral activity of the compounds of general formula I was studied by oral administration of the compounds to infected mice once daily at a dose of 30 mg/kg/mouse 24, 48, 72, 96, and 120 hours after infection of the animals with the virus. The mice of the control group were administered placebo (0.2 mL of physiological solution) under the same conditions. The animals were monitored for 14 days after infection by registration the mouse death in the groups.
Each animal was subjected to once-daily observation. The observation included the assessment of general behavior and body condition of animals. The animals were handled according to the International Standards.
The activity of the compounds was evaluated by comparing mortality rates in the groups of animals administered a preparation and placebo.

Compound	mortality at 30 mg/kg
O=C(O)CCCC(=O)NCCC1CCCN1 (stereo not drawn) [Compound 2]	55%
O=C(O)CCCC(=O)NCCC1CCCCN1 (stereo not drawn) [Compound 6]	60%
O=C(O)CCCC(=O)NCCCc1cccs1 [Compound 34]	70%
CC(Cc1cnc[nH]1)NC(=O)CCCC(=O)O (stereo not drawn) [Compound 115]	65%
O=C(O)CCCC(=O)NCCCc1c[nH]cn1 [Compound 118]	70%
CC(C)N(CCc1cnc[nH]1)C(=O)CCCC(=O)O [Compound 141]	50%
Cc1csc(CCNC(=O)CCCC(=O)O)n1 [Compound 197]	55%
O=C(O)CCCC(=O)NC(Cc1c[nH]cn1)C(=O)O (stereo not drawn) [Compound 251]	65%
O=C(O)CCCC(=O)NCCc1nc2ccccc2s1 [Compound 275]	60%
